The target in one experiment is T1, Notch1 (Homo sapiens, UniProt P46531).
T1 construct: pLV[Tet]-Puro-TRE3G>Notch1-ICD; expressed in transfected cells; host or cells: 293A cells
Briefly: Notch1 Reporter Assay (CSL-responsive luciferase, doxycycline-induced Notch-ICD in 293A cells). The settings on record: 25 ng/mL Dox, 24 h, luciferase normalized to cell viability. The format is cell-based. How it is done:
293A cells expressing 1) pCMV-Tet-On 3G, 2) pLV[Tet]-Puro-TRE3G>Notch1-ICD, 3) pLV[Tet]-Puro-TRE3G>Notch2-ICD, 4) pLV[Tet]-Puro-TRE3G>Notch3-ICD, and 5) pCSL-RElement-Luc were used. When Doxycycline is added, the Tet-ON gene activates expression of hNotch1ICD, which together with endogenous NTC components binds to CSL responsive elements (pCSL-RElement-Luc) and expresses luciferase. 1×10^4 cells are plated in 100 μL (96-well format). 24 h later, compounds (10 mM stock in DMSO) are diluted in DMSO to 200×, then added (5 ul into 1 mL) to cell culture media containing 50 ng/mL Dox. This is then added 1:1 to cells. Final DMSO=0.25%, Dox=25 ng/mL. After 24 h, media is discarded, and cells are lysed in passive lysis buffer (Promega). Cells are rocked at room temperature for 15 min and then lysate is divided for luciferase assay (Luciferase Assay System, Promega) and cell viability (CellTiter Glo 2.0, Promega). Raw luciferase is normalized to cell viability, and then scaled to DMSO wells. Results are analyzed and IC50's are determined in GraphPad by nonlinear regression curve fitting (4 parameter) of dose response curves.

The test system of experiment [1] is OE33 Esophageal Adenocarcinoma cell line. Put plainly: OE33 Colony Formation Assay. It counts as cell-based. The settings on record: Homo sapiens, 200 cells/well, compound every 48 hours for 7 days, CellTiter-Glo. As to the method:
OE33 Colony Formation Assay:
The OE33 Esophageal Adenocarcinoma cell line was cultured and plated into 96-well tissue culture plates under sparse conditions (200 cells/well). Test compounds were serially diluted in DMSO and then into culture media (final DMSO concentration=0.1%). Compound/media was then added to cells every 48 hours for a total of 7 days. Clonogenic growth was assessed using the CellTiter-Glo reagent, according to manufacturer (Promega) specifications. Percent inhibition was calculated as the percent of luminescence normalized to control (0.1% DMSO) wells. Nonlinear regression curve fitting was performed using GraphPad Prism software to determine EC50's.
In general terms: ATP-based viability assays read luminescence as a measure of living cells.

Counter-ions that a name gives are not always drawn.

T1 sequence (P46531 1754-2555 limits assumed): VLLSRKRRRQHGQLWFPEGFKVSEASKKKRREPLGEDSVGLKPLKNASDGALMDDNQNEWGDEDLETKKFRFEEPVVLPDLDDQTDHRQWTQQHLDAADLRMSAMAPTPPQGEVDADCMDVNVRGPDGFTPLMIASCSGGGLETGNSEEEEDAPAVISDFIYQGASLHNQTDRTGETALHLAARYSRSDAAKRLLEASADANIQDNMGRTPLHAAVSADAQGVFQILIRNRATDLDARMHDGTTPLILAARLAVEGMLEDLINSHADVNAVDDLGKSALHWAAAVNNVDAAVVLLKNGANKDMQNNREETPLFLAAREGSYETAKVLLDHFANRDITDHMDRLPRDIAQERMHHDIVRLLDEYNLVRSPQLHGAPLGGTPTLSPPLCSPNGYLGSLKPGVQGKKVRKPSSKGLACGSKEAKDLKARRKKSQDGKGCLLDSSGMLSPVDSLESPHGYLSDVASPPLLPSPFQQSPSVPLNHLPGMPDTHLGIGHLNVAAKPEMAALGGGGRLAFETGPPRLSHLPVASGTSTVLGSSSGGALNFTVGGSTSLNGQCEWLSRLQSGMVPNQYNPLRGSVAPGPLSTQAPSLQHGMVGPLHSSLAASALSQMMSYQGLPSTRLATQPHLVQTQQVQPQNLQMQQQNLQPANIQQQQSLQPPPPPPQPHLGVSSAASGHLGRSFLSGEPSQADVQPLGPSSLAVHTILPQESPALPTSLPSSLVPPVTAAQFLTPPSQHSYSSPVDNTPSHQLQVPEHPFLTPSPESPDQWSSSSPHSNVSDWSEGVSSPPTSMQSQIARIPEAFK

`COc1cc(-c2cc(C(F)(F)F)cc3c2n(C)c(=O)n3CC(=O)Nc2cccc(C#N)c2)cc(F)c1OCc1nnc[nH]1` [SSTN-545, 2-(4-(4-((4H-1,2,4-triazol-3-yl)methoxy)-3-fluoro-5-methoxyphenyl)-3-methyl-2-oxo-6-(trifluoromethyl)-2,3-dihydro-1H-benzo[d]imidazol-1-yl)-N-(3-cyanophenyl)acetamide]: on Notch1, 5.8 µM corresponded to half-maximal inhibition (IC50). That is a single-digit micromolar value.
The same measure, in the same setting: then `Cn1c(=O)n(CC(=O)Nc2ccc(F)cc2)c2cc(C(F)(F)F)cc(-c3ccc(OCc4nnc[nH]4)c(F)c3)c21` [SSTN-597, 2-(4-(4-((4H-1,2,4-triazol-3-yl)methoxy)-3-fluorophenyl)-3-methyl-2-oxo-6-(trifluoromethyl)-2,3-dihydro-1H-benzo[d]imidazol-1-yl)-N-(4-fluorophenyl)acetamide], with 8.1 µM.
As for `COc1cc(-c2cc(C(F)(F)F)cc3c2n(C)c(=O)n3CC(=O)Nc2cccc(F)c2)cc(F)c1OCc1nnc[nH]1` [SSTN-496, 2-(4-(4-((4H-1,2,4-triazol-3-yl)methoxy)-3-fluoro-5-methoxyphenyl)-3-methyl-2-oxo-6-(trifluoromethyl)-2,3-dihydro-1H-benzo[d]imidazol-1-yl)-N-(3-fluorophenyl)acetamide hydrochloride], the IC50 (commonly the concentration needed to halve the response being measured) at Notch1 turned out to be 6 µM. Also, in experiment [1], the response was half-maximal at 3.7 µM (EC50).
`COc1cc(-c2cc(Cl)cc3c2n(C)c(=O)n3CC(=O)Nc2ccc(F)cc2)cc(F)c1OCc1nnc[nH]1` [SSTN-601, 2-(4-(4-((4H-1,2,4-triazol-3-yl)methoxy)-3-fluoro-5-methoxyphenyl)-6-chloro-3-methyl-2-oxo-2,3-dihydro-1H-benzo[d]imidazol-1-yl)-N-(4-fluorophenyl)acetamide] showed an IC50 at Notch1 of 10.2 µM. For the same compound, the EC50 (as a rule, the midpoint of the concentration-response curve) in experiment [1] worked out at 7.1 µM.
Consider `Cn1c(=O)n(CC(=O)N(Cc2nnc[nH]2)c2ccc(F)cc2)c2cc(C(F)(F)F)cc(-c3cc(Cl)c(OCc4nnc[nH]4)c(Cl)c3)c21` [SSTN-594, 2-(4-(4-((4H-1,2,4-triazol-3-yl)methoxy)-3,5-dichlorophenyl)-3-methyl-2-oxo-6-(trifluoromethyl)-2,3-dihydro-1H-benzo[d]imidazol-1-yl)-N-((4H-1,2,4-triazol-3-yl)methyl)-N-(4-fluorophenyl)acetamide], for which the IC50 at Notch1 is 4.5 µM.
With `COc1cc(-c2cc(C(F)(F)F)cc3c2n(C)c(=O)n3CC(=O)Nc2ccc(F)cc2)c(F)cc1OCc1nnc[nH]1` [SSTN-603, 2-(4-(4-((4H-1,2,4-triazol-3-yl)methoxy)-2-fluoro-5-methoxyphenyl)-3-methyl-2-oxo-6-(trifluoromethyl)-2,3-dihydro-1H-benzo[d]imidazol-1-yl)-N-(4-fluorophenyl)acetamide], on Notch1, the IC50 came out at 7.4 µM. The compound further showed an EC50 in experiment [1] of 3.8 µM.
For `COc1cc(-c2cc(C(F)(F)F)cc3c2n(C)c(=O)n3CC(=O)N(c2ccc(F)cc2)C(C)C)cc(F)c1OCc1nnc[nH]1` [SSTN-542, 2-(4-(4-((4H-1,2,4-triazol-3-yl)methoxy)-3-fluoro-5-methoxyphenyl)-3-methyl-2-oxo-6-(trifluoromethyl)-2,3-dihydro-1H-benzo[d]imidazol-1-yl)-N-(4-fluorophenyl)-N-isopropylacetamide], inhibition against Notch1 was half-maximal at 3.8 µM (IC50). The compound further yielded an EC50 in experiment [1] of 1.7 µM.
Take `COc1cc(-c2cc(C(F)(F)F)cc3c2n(C)c(=O)n3CC(=O)Nc2cccc(S(C)(=O)=O)c2)cc(F)c1OCc1nnc[nH]1` [SSTN-501, 2-(4-(4-((4H-1,2,4-triazol-3-yl)methoxy)-3-fluoro-5-methoxyphenyl)-3-methyl-2-oxo-6-(trifluoromethyl)-2,3-dihydro-1H-benzo[d]imidazol-1-yl)-N-(3-(methylsulfonyl)phenyl)acetamide hydrochloride]: the midpoint of inhibition on Notch1, the IC50, lay at 13 µM. This counts as double-digit micromolar.
On Notch1, `Cn1c(=O)n(CC(=O)N(Cc2nnc[nH]2)c2ccc(F)cc2)c2cc(C(F)(F)F)cc(-c3ccc(OCc4nnc[nH]4)c(F)c3)c21` [SSTN-592, 2-(4-(4-((4H-1,2,4-triazol-3-yl)methoxy)-3-fluorophenyl)-3-methyl-2-oxo-6-(trifluoromethyl)-2,3-dihydro-1H-benzo[d]imidazol-1-yl)-N-((4H-1,2,4-triazol-3-yl)methyl)-N-(4-fluorophenyl)acetamide] came in with an IC50 of 14.8 µM.
The same measure, in the same setting: then `COc1cc(-c2cc(C(F)(F)F)cc3c2n(C)c(=O)n3CC(=O)Nc2ccn(C)n2)cc(F)c1OCc1nnc[nH]1` [SSTN-509, 2-(4-(4-((4H-1,2,4-triazol-3-yl)methoxy)-3-fluoro-5-methoxyphenyl)-3-methyl-2-oxo-6-(trifluoromethyl)-2,3-dihydro-1H-benzo[d]imidazol-1-yl)-N-(1-methyl-1H-pyrazol-3-yl)acetamide hydrochloride], with 16.1 µM.
Consider `COc1cncc(NC(=O)Cn2c(=O)n(C)c3c(-c4cc(F)c(OCc5nnc[nH]5)c(OC)c4)cc(C(F)(F)F)cc32)c1` [SSTN-611, 2-(4-(4-((4H-1,2,4-triazol-3-yl)methoxy)-3-fluoro-5-methoxyphenyl)-3-methyl-2-oxo-6-(trifluoromethyl)-2,3-dihydro-1H-benzo[d]imidazol-1-yl)-N-(5-methoxypyridin-3-yl)acetamide], for which, on Notch1, the IC50 was 20.9 µM.
In the case of `COc1cc(-c2cc(C(F)(F)F)cc3c2n(C)c(=O)n3CC(=O)Nc2cccc(CN3CCOCC3)c2)cc(F)c1OCc1nnc[nH]1` [SSTN-575, 2-(4-(4-((4H-1,2,4-triazol-3-yl)methoxy)-3-fluoro-5-methoxyphenyl)-3-methyl-2-oxo-6-(trifluoromethyl)-2,3-dihydro-1H-benzo[d]imidazol-1-yl)-N-(3-(morpholinomethyl)phenyl)acetamide], on Notch1, it took 12.5 µM to reach half-maximal inhibition (IC50). This IC50 lies about 1.7-fold lower than the previous one.
Compound `COc1cc(-c2cc(C(F)(F)F)cc3c2n(C)c(=O)n3CC(=O)Nc2cncc(C(F)(F)F)c2)cc(F)c1OCc1nnc[nH]1` [SSTN-614, 2-(4-(4-((4H-1,2,4-triazol-3-yl)methoxy)-3-fluoro-5-methoxyphenyl)-3-methyl-2-oxo-6-(trifluoromethyl)-2,3-dihydro-1H-benzo[d]imidazol-1-yl)-N-(5-(trifluoromethyl)pyridin-3-yl)acetamide] yielded an IC50 at Notch1 of 3.4 µM.
Still for that read-out and setting: then `COc1ccc(NC(=O)Cn2c(=O)n(C)c3c(-c4cc(F)c(OCc5nnc[nH]5)c(OC)c4)cc(C(F)(F)F)cc32)cn1` [SSTN-613, 2-(4-(4-((4H-1,2,4-triazol-3-yl)methoxy)-3-fluoro-5-methoxyphenyl)-3-methyl-2-oxo-6-(trifluoromethyl)-2,3-dihydro-1H-benzo[d]imidazol-1-yl)-N-(6-methoxypyridin-3-yl)acetamide], with 9.2 µM; and `COc1cc(-c2cc(C(F)(F)F)cc3c2n(C)c(=O)n3CC(=O)N2CCN(C)CC2)cc(F)c1OCc1nnc[nH]1` [SSTN-544, 4-(4-((4H-1,2,4-triazol-3-yl)methoxy)-3-fluoro-5-methoxyphenyl)-3-methyl-1-(2-(4-methylpiperazin-1-yl)-2-oxoethyl)-6-(trifluoromethyl)-1,3-dihydro-2H-benzo[d]imidazol-2-one], with 51.1 µM; and `COc1cc(-c2cc(F)cc3c2n(C)c(=O)n3CC(=O)N(C)c2ccc(Cl)cc2)cc(F)c1OCc1nc[nH]n1` [compound 384, 2-(4-(4-((1H-1,2,4-triazol-3-yl)methoxy)-3-fluoro-5-methoxyphenyl)-6-fluoro-3-methyl-2-oxo-2,3-dihydro-1H-benzo[d]imidazol-1-yl)-N-(4-chlorophenyl)-N-methylacetamide hydrochloride], with 14.2 µM.
On Notch1, `COc1cc(-c2cc(F)cc3c2n(C)c(=O)n3CC(=O)N(C)c2ccc(F)cc2)cc(F)c1OCc1nnc[nH]1` [compound 425, 2-(4-(4-((4H-1,2,4-triazol-3-yl)methoxy)-3-fluoro-5-methoxyphenyl)-6-fluoro-3-methyl-2-oxo-2,3-dihydro-1H-benzo[d]imidazol-1-yl)-N-(4-fluorophenyl)-N-methylacetamide hydrochloride] had an IC50 of 33.5 µM.
As to `COc1cc(-c2cc(C)cc3c2n(C)c(=O)n3CC(=O)Nc2ccc(F)cc2)cc(F)c1OCc1nnc[nH]1` [SSTN-606, 2-(4-(4-((4H-1,2,4-triazol-3-yl)methoxy)-3-fluoro-5-methoxyphenyl)-3,6-dimethyl-2-oxo-2,3-dihydro-1H-benzo[d]imidazol-1-yl)-N-(4-fluorophenyl)acetamide hydrochloride salt], the IC50 on Notch1 was 15.3 µM.
Same read-out and setting: the figure for `Cn1c(=O)n(CC(=O)Nc2ccc(F)cc2)c2cc(C(F)(F)F)cc(-c3cc(Cl)c(OCc4nnc[nH]4)c(Cl)c3)c21` [SSTN-599, 2-(4-(4-((4H-1,2,4-triazol-3-yl)methoxy)-3,5-dichlorophenyl)-3-methyl-2-oxo-6-(trifluoromethyl)-2,3-dihydro-1H-benzo[d]imidazol-1-yl)-N-(4-fluorophenyl)acetamide] is 13.9 µM.

The values above are taken from patent US20230183215A1, “Notch Inhibitors and Uses Thereof” (StemSynergy Therapeutics, Inc., priority 2020, published 2023).
